Laboratory results reported in ChEMBL document CHEMBL3351884, “Semi-synthesis of oxygenated dolabellane diterpenes with highly in vitro anti-HIV-1 activity” (Bioorg Med Chem Lett, 2014).
pEC50: −log10 of the molar value.

Key:
[1] = Cytotoxicity against human MT2 cells after 4 to 5 days by MTT assay; format: cell-based
[2] = Selectivity index, ratio of CC50 for human MT2 cells to EC50 for X4 tropic HIV1 3B infected in human MT2 cells; format: toxicity, cell-based; settings: read-out: Ratio CC50/EC50
[3] = system: Human immunodeficiency virus 1; assay: Antiviral activity against X4 tropic HIV1 3B infected in human MT2 cells assessed as protection against virus-induced cytopathic effect after 2 to 3 days by MTT assay; format: functional, organism-based; settings: Human immunodeficiency virus 1, 3B

For `C=C1CC[C@@H]2C(=C(C)C)C(=O)C[C@@]2(C)C[C@@H](O)[C@](C)(O)CC[C@@H]1O`, the CC50 [1] was 920 µM, the selectivity ratio [2] was 236 and the pEC50 [3] was 5.41.
`CC(C)=C1C(=O)C[C@@]2(C)C/C=C(\C)CC/C=C(\C)CC[C@H]12` [DOLABELLANE] showed a CC50 [1] of 2570 µM, a selectivity ratio [2] of 13.5 and a pEC50 [3] of 3.72.
Work on `CC(C)=C1C(=O)C[C@@]2(C)C[C@@H]3O[C@@]3(C)CC[C@@H]3O[C@@]3(C)CC[C@H]12` yielded a CC50 [1] of 1690 µM, a selectivity ratio [2] of 2320 and a pEC50 [3] of 6.14.
For `Cc1ccnc2c1NC(=O)c1cccnc1N2C1CC1` [NEVIRAPINE], the CC50 [1] was 320 µM.
For `CC(C)=C1CC[C@@]2(C)C/C=C(\C)CC/C=C(\C)CC[C@H]12`, the CC50 [1] was 1830 µM, the selectivity ratio [2] was 8.7 and the pEC50 [3] was 3.68.
For `C[C@H]1/C=C/[C@@]2(C)CC[C@@H](C(C)(C)O)[C@@H]2[C@@H](O)C[C@@](C)(O)/C=C\C1`, the CC50 [1] was 1130 µM, the selectivity ratio [2] was 184 and the pEC50 [3] was 5.21.
`CC(C)=C1C(=O)C[C@@]2(C)C/C=C(\CO)CC/C=C(\C)CC[C@H]12` showed a CC50 [1] of 980 µM, a selectivity ratio [2] of 1420 and a pEC50 [3] of 6.16.
